The target in assay [1] is T1, Ras farnesyl transferase (Homo sapiens, UniProt P49354+P49356).
T1 construct: made in house
Nature of the assay: in vitro inhibitory activity for Ras farnesyl transferase, H-Ras substrate. Conditions: recombinant Ras farnesyl transferase, H-Ras substrate, tritium-farnesylpyrophosphate, 30 minutes at 37° C.; read-out: H-Ras IC50. It is filed as biochemical.

The target in assay [2] is T1, Ras farnesyl transferase. Nature of the assay: in vitro inhibitory activity for Ras farnesyl transferase, K-Ras substrate. The format is biochemical. Conditions: recombinant Ras farnesyl transferase, K-Ras substrate; read-out: K-Ras IC50.
The target of assay [3] is T2, Ras farnesyl transferase (Rattus norvegicus, UniProt Q02293+Q04631).
T2 construct: endogenous in cells; host or cells: Rat2 fibroblasts transformed with C-Harvey-Ras, or with H-Ras carrying the K-Ras C-terminal polybasic lysine domain
Nature of the assay: in vivo (cellular) Ras farnesyl transferase inhibitory activity, Rat2 cells expressing C-Harvey-Ras. The format is cell-based. Particulars: Rat2 cell line expressing C-Harvey-Ras; concentration inhibiting 50% of farnesyl binding of Ras protein; read-out: H-Ras CIC50. Put shortly: (§1)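 Transformed Rat2 cells treated with compound in 1% DMSO, labelled with [35S]methionine from 4 h onward for a further 20 h. Ras immunoprecipitated with Y13-259 and resolved by SDS-PAGE and autoradiography. CIC50 is the concentration inhibiting 50% of Ras farnesylation, from farnesylated versus unfarnesylated band intensities.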

Assay [4] has as its target T2, Ras farnesyl transferase. The assay can be described thus: in vivo (cellular) Ras farnesyl transferase inhibitory activity, Rat2 cells transformed with H-Ras fused with polybasic lysine domain of K-Ras. It is filed as cell-based. Conditions: Rat2 cell line transformed with H-Ras substituted with polybasic lysine domain at C-terminus of K-Ras; concentration inhibiting 50% of farnesyl binding; read-out: K-Ras CIC50. In a few lines:
as §1

pIC50: −log10 of the molar value.

Consider `CN1CCN(C(=O)c2cn(Cc3cncn3CC3CCN(C(=O)CCc4ccccc4)CC3)cc2-c2cccc3ccccc23)CC1` [Compound 43, 3-(4-Methylpiperazin-1-yl)carbonyl-4-(naphthalen-1-yl)-1-{1-[1-(2-phenylethylcarbonyl)-piperidin-4-yl]methyl-1H-imidazol-5-yl}methyl-1H-pyrrole], for which the pIC50 in assay [1] is 8.70; in assay [2], 8.00; in assay [3] it was 7.30; in assay [4], 4.30 to 5.00.
For `CN1CCN(C(=O)c2cn(Cc3cncn3CC3CCN(C(=O)COc4ccccc4)CC3)cc2-c2cccc3ccccc23)CC1` [Compound 44, 3-(4-Methylpiperazin-1-yl)carbonyl-4-(naphthalen-1-yl)-1-[1-(1-phenoxyacetylpiperidin-4-yl)methyl-1H-imidazol-5-yl]methyl-1H-pyrrole], in that order: 8.70, 7.96, 7.30 and 4.30 to 5.00.
On to `CN1CCN(C(=O)c2cn(Cc3cncn3CC3CCN(C(=O)OCc4ccc5ccccc5c4)CC3)cc2-c2cccc3ccccc23)CC1` [Compound 45, 3-(4-Methylpiperazin-1-yl)carbonyl-4-(naphthalen-1-yl)-1-{1-[1-(naphthalen-2-ylmethyloxy)carbonylpiperidin-4-yl]methyl-1H-imidazol-5-yl}methyl-1H-pyrrole], for which the pIC50 in assay [1] is 8.74; in assay [2], 7.92; in assay [3], 7.46; in assay [4] it was 5.00.
For `CC(C)CCOC(=O)N1CCC(Cn2cncc2Cn2cc(C(=O)N3CCN(C)CC3)c(-c3cccc4ccccc34)c2)CC1` [Compound 46], the pIC50 in assay [1] was 8.66; in assay [2] it was 7.80; in assay [3], 7.60; in assay [4] it was 4.30 to 5.00.
On to `CN1CCN(C(=O)c2cn(Cc3cncn3CC3CCN(C(=O)OCc4ccc(F)cc4)CC3)cc2-c2cccc3ccccc23)CC1` [Compound 47], for which the pIC50 was 8.48 in assay [1], 8.22 in assay [2], 7.90 in assay [3] and 5.40 in assay [4].
On to `CN1CCN(C(=O)c2cn(Cc3cncn3CC3CCN(C(=O)OC/C=C/c4ccccc4)CC3)cc2-c2cccc3ccccc23)CC1` [Compound 48], for which the pIC50 in assay [1] is 8.48; in assay [2], 8.15; in assay [3] it was 7.90; in assay [4] it was 6.00.
The corresponding values for `CN1CCN(C(=O)c2cn(Cc3cncn3CC3CCN(C(=O)c4ccc5ccccc5c4)CC3)cc2-c2cccc3ccccc23)CC1` [Compound 49] are 8.74, 7.92, 6.46 and 5.00.
On to `CN1CCN(C(=O)c2cn(Cc3cncn3CC3CCN(C(=O)/C=C/c4ccccc4)CC3)cc2-c2cccc3ccccc23)CC1` [Compound 50], for which the pIC50 in assay [1] was 8.77; in assay [2], 8.10; in assay [3], 7.52; in assay [4] it was 4.30 to 5.00.
The corresponding values for `CC(C)c1nc(C(=O)N2CCC(Cn3cncc3Cn3cc(C(=O)N4CCN(C)CC4)c(-c4cccc5ccccc45)c3)CC2)cs1` [Compound 51] are 8.52, 8.00, 8.30 and 4.30 to 5.00.
For `CN1CCN(C(=O)c2cn(Cc3cncn3CC3CCN(C(=O)N(C)Cc4ccccc4)CC3)cc2-c2cccc3ccccc23)CC1` [Compound 52], in that order: 8.64, 8.00, 7.30 and 4.30 to 5.00.
Turning to `CN1CCN(C(=O)c2cn(Cc3cncn3CC3CCN(C(=O)N(C)C)CC3)cc2-c2cccc3ccccc23)CC1` [Compound 53, 1-{1-[1-(N,N-Dimethylcarbamoyl)piperidin-4-yl]methyl-1H-imidazol-5-yl}methyl-3-(4-methylpiperazin-1-yl)carbonyl-4-(naphthalen-1-yl)-1H-pyrrole], the pIC50 in assay [1] is 8.52; in assay [2], 8.07; in assay [3] it was 7.30; in assay [4], 4.30 to 5.00.
The corresponding values for `CN1CCN(C(=O)c2cn(Cc3cncn3CC3CCN(C(=O)N4CCCc5ccccc54)CC3)cc2-c2cccc3ccccc23)CC1` [Compound 54, 3-(4-Methylpiperazin-1-yl)carbonyl-4-(naphthalen-1-yl)-1-{1-[1-(1,2,3,4-tetrahydroquinolin-1-ylcarbonyl)piperidin-4-yl]methyl-1H-imidazol-5-yl}methyl-1H-pyrrole] are 7.96, 7.40, 7.60 and 4.30 to 5.00.
The corresponding values for `CN1CCN(C(=O)c2cn(Cc3cncn3CC3CCN(C(=O)N4CCc5ccccc5C4)CC3)cc2-c2cccc3ccccc23)CC1` [Compound 55, 3-(4-Methylpiperazin-1-yl)carbonyl-4-(naphthalen-1-yl)-1-{1-[1-(1,2,3,4-tetrahydroisoquinolin-2-ylcarbonyl)piperidin-4-yl]methyl-1H-imidazol-5-yl}methyl-1H-pyrrole] are 8.70, 7.40, 7.60 and 4.30 to 5.00.
Regarding `CN1CCN(C(=O)c2cn(Cc3cncn3CC3CCN(Cc4ccc(-c5ccccc5)cc4)CC3)cc2-c2cccc3ccccc23)CC1` [Compound 56, 1-{1-[1-(4-Biphenylmethyl)piperidin-4-yl]methyl-1H-imidazol-5-yl}methyl-3-(4-methylpiperazin-1-yl)carbonyl-4-(naphthalen-1-yl)-1H-pyrrole], the pIC50 was 8.30 in assay [1], 7.70 in assay [2], 7.30 in assay [3] and 5.30 in assay [4].
`CN1CCN(C(=O)c2cn(Cc3cncn3CC3CCN(Cc4ccc(Oc5ccccc5)cc4)CC3)cc2-c2cccc3ccccc23)CC1` [Compound 57, 3-(4-Methylpiperazin-1-yl)carbonyl-4-(naphthalen-1-yl)-1-{1-[1-(4-phenoxybenzyl)piperidin-4-yl]methyl-1H-imidazol-5-yl}methyl-1H-pyrrole]: the pIC50 in assay [1] is 7.96; in assay [2], 8.00; in assay [3] it was 7.60; in assay [4], 5.00.

These data come from patent US6436960B1, “Farnesyl transferase inhibitors having a piperidine structure and process for preparation thereof” (LG Chemical Ltd., priority 1998, dated 2002).
